The assay concerns the target T1, 5-hydroxytryptamine receptor 1A (Homo sapiens, UniProt P08908).
T1 sequence (P08908 whole entry): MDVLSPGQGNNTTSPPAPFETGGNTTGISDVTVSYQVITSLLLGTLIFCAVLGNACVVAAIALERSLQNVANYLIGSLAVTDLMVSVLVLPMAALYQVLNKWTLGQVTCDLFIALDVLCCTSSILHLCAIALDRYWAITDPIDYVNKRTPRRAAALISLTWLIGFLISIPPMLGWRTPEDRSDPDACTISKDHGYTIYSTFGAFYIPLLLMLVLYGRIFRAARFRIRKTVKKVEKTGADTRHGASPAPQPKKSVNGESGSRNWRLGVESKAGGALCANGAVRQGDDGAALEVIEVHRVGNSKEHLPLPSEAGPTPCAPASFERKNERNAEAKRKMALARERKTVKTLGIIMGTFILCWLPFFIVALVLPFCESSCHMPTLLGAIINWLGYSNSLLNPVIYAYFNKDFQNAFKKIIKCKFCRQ
The assay can be described thus: Agonist activity at human 5HT1A receptor expressed in CHOK1 cells incubated for 16 hrs followed by forskolin-stimulation and measured after 2 hrs by dual-glo luciferase reporter gene assay. In kind it is cell-based.
For `CC[C@H]1C[N+]2([O-])CCc3c([nH]c4ccccc34)[C@H]2C[C@@H]1/C(=C\OC)C(=O)OC` (stereo partly drawn), the 50% effective concentration (EC50) – broadly, the midpoint of the concentration-response curve – was more than 100 µM.
The compound `C=C[C@H]1CN2CCc3c([nH]c4ccccc34)[C@@H]2C[C@@H]1/C(=C\OC)C(=O)OC` had a 50% effective concentration (EC50) of more than 100 µM.
In the case of `C=C[C@H]1CN2CC[C@]3(O)C(=Nc4ccccc43)[C@H]2C[C@@H]1/C(=C\OC)C(=O)OC`, the EC50 is more than 100 µM.
In turn, `C=C[C@H]1CN2CCc3c([nH]c4ccccc34)[C@H]2C[C@@H]1[C@@H](CO)C(=O)OC` returned an EC50 of 0.1 µM.
Compound `C=C[C@H]1[C@H](O[C@@H]2O[C@H](CO)[C@@H](O)[C@H](O)[C@H]2O)OC=C2C(=O)N3CCc4c([nH]c5ccccc45)[C@@H]3C[C@H]21` displayed an EC50 of more than 100 µM.
Compound `C=C[C@H]1[C@H](O[C@@H]2O[C@H](CO)[C@@H](O)[C@H](O)[C@H]2O)OC=C2C(=O)N3CCc4c([nH]c5ccccc45)[C@H]3C[C@H]21` displayed an EC50 of more than 100 µM.
As for `CC[C@H]1C[N@+]2([O-])CCc3c([nH]c4ccccc34)[C@H]2C[C@H]1/C(=C\OC)C(=O)OC`, the EC50 was more than 100 µM.
Compound `C=C[C@H]1CN2CCc3c([nH]c4ccccc34)[C@H]2C[C@@H]1[C@H](CO)C(=O)OC` returned an EC50 of 54.4 µM.
Compound `CC[C@H]1CN2CCc3c([nH]c4ccccc34)[C@H]2C[C@@H]1[C@H](CO)C(=O)OC` returned a half-maximal effective concentration (EC50) of more than 100 µM.
Compound `COC(=O)C1=CO[C@@H](O[C@@H]2O[C@H](CO)[C@@H](O)[C@H](O)[C@H]2O)[C@H]2[C@@H]1C[C@H]1c3[nH]c4ccccc4c3CCN1C[C@@H]2O` displayed an EC50 of 1.6 µM.
`COC(=O)C1=CO[C@@H](O[C@@H]2O[C@H](CO)[C@@H](O)[C@H](O)[C@H]2O)[C@@H]2[C@@H]3CN4CCc5c([nH]c6ccccc56)[C@]4(C[C@H]12)O3`: the midpoint of the response, the EC50, lay at 10.2 µM.
Regarding `C=C[C@H]1CN2CC[C@]3(O[C@@H]2C[C@@H]1/C(=C\OC)C(=O)OC)C(=O)Nc1ccccc13`, the EC50 worked out at 10.1 µM.
In turn, `C/C=C1\CN2CCc3c([nH]c4ccccc34)[C@H]2C[C@@H]1/C(=C\OC)C(=O)OC` gave an EC50 of more than 100 µM.
For `C=C[C@H]1C[N@@+]2([O-])CCc3c([nH]c4ccccc34)[C@H]2C[C@@H]1/C(=C\OC)C(=O)OC`, the EC50 is 85 µM.
Under `CC[C@H]1CN2CCc3c([nH]c4ccccc34)[C@H]2C[C@H]1/C(=C\OC)C(=O)OC` stands more than 100 µM; under `C=C[C@H]1C[N@@+]2([O-])CCc3c([nH]c4ccccc34)[C@H]2C[C@@H]1[C@@H](CO)C(=O)OC`, more than 500 µM.
As to `C/C=C1/C[N+]2([O-])CCc3c([nH]c4ccccc34)[C@@H]2C[C@@H]1/C(=C\OC)C(=O)OC` (stereo partly drawn), the EC50 was more than 100 µM.
The same measure for `C/C=C1\C[N@@+]2([O-])CCc3c([nH]c4ccccc34)[C@@H]2C[C@@H]1[C@H](CO)C(=O)OC`: 11.4 µM.
In the case of `CC[C@H]1CN2CCc3c([nH]c4ccccc34)[C@H]2C[C@@H]1[C@@H](CO)C(=O)OC`, the EC50 stood at 2.2 µM.
Turning to `C=C[C@H]1CN2CC[C@@]3(C(=O)Nc4ccccc43)[C@@H]2C[C@@H]1/C(=C\OC)C(=O)OC` [ISOCORYNOXEINE], the EC50 is more than 100 µM.
The compound `CC[C@H]1CN2CC[C@@]3(C(=O)Nc4ccccc43)[C@@H]2C[C@@H]1/C(=C\OC)C(=O)OC` [ISORHYNCHOPHYLLINE] gave an EC50 of 2 µM.
Consider `CC[C@H]1CN2CC[C@]3(C(=O)Nc4ccccc43)[C@@H]2C[C@@H]1/C(=C\OC)C(=O)OC` [RHYNCHOPHYLLINE], for which the EC50 came to 10.3 µM.
In turn, `COC(=O)C1=CO[C@@H](C)[C@@H]2CN3CCc4c([nH]c5ccccc45)[C@@H]3C[C@H]12` [TETRAHYDROALSTONINE] returned an EC50 of more than 100 µM.

(Values after ChEMBL document CHEMBL4414667, “Uncarialins A-I, Monoterpenoid Indole Alkaloids from Uncaria rhynchophylla as Natural Agonists of the 5-HT1A Receptor” (J Nat Prod, 2019).)
